From patent US9814734B2, “Bufalin liposome, preparation method therefor and application thereof” (THE FOURTH MILITARY MEDICAL UNIVERSITY, priority 2012, dated 2017)
Marks after values point to notes of the source that are not given here.

Key:
[1] = Evaluation of acute toxicities in mice (LD50, Bliss method); settings: mouse, in vivo, ip; male Balb/c mice, intraperitoneal, observed 7 days; dose as amount of bufalin; read-out: half-lethal dose (LD50)
Description: Male Balb/c mice (20-25 g) are purchased from the Laboratory Animal Center of Fourth Military Medical University. Bufalin is dissolved with anhydrous ethanol first, and then diluted with normal saline to 0.2 mg/ml (the final concentration of ethanol is below 1%). Bufalin liposome (prepared according to the method of Example 1) is directly dissolved in normal saline to obtain 0.2 mg/ml solution. 10 animals of each group are intraperitoneally injected with bufalin or bufalin liposome at dosages of 0.5, 1, 2, 4 and 6 mg/kg respectively (the dosage is the amount of bufalin in liposome, and the actual dosage of liposome is calculated from encapsulation efficiency). The mortality of mice, the toxic effect and any adverse reactions such as diarrhea, weight loss and behavior change are observed continuously for 7 days. The half-lethal dose (LD50) is calculated using graphical Bliss method.

[2] = system: HepG2 tumour bearing mice; experiment: In vivo therapeutic effect on liver cancer, HepG2 tumour bearing nude mice; set-up: species or system mouse; settings: i.p. daily, 1 mg/kg bufalin or 1 ml/kg Huachasu
Description: Human hepatocellular carcinoma cells, HepG2, are cultured in DMEM medium supplemented with 10% FBS, 100 U/ml penicillin G, and 100 μg/ml streptomycin in a humidified 5% CO2 atmosphere at 37° C. Male BALB/c nude mice (6-week-aged) are fed in pathogen-free conditions. The bufalin liposome is prepared according to the method of Example 1. Exponentially growing HepG2 cells are collected, and prepared into cell suspension with PBS. 0.2 ml of the cell suspension (2×10^7 cells) is injected subcutaneously into the right back of each mouse. When the tumor grows to 100 mm^3 (about one week), the mice are randomly divided into 4 groups (8 mice for each group), and intraperitoneally injected with 0.9% normal saline (control group), bufalin or bufalin liposome at the same dosage (Example 1, 1 mg/kg, the dosage is the amount of bufalin in liposome, and the actual dosage of liposome is calculated from encapsulation efficiency) and Huachasu injection (1 ml/kg, the dosage is obtained by converting clinically commonly used dosage into mouse administration dosage) respectively every day. […] The tumor volume is calculated according to the formula: V(mm^3)=(maximal diameter×minimal diameter^2)/2. After 14 days, the mice are sacrificed in anesthesia with overdose of pentobarbital sodium, followed by completely stripping the tumor body and weighing, and calculating the tumor inhibition rate by: tumor inhibition rate (%)=(average tumor weight of control group-average tumor weight of administration group)/average tumor weight of control group×100. Data are expressed as X±SEM, and statistically processed via t-test or variance analysis.

[3] = system: mice bearing L1210 leukemia; experiment: Therapeutic effect on mice bearing L1210 leukemia; assay type: in vivo, mouse; settings: ICR mice, i.p. daily, 1 mg/kg bufalin or 1 ml/kg Huachasu
Description: Mouse L1210 leukemia cells are subcultured intraperitoneally in ICR mouse. The bufalin liposome is prepared according to the method of Example 1. Male ICR mice (weight of 20±2 g, 5 mice in each cage) are fed in an animal room under alternative 12-hour illumination and 12-hour darkness at a constant temperature of 25° C. and allowed free access to standard laboratory diet. The mice are inoculated intraperitoneally with 1×10^5 L1210 leukemia cell suspension under sterile condition, and randomly divided into 4 groups (10 mice for each group). After 24 h, each group is intraperitoneally injected with 0.9% normal saline (control group), bufalin or bufalin liposome at the same dosage (obtained by Example 1, 1 mg/kg, the dosage is the amount of bufalin in liposome, and the actual dosage of liposome is calculated from encapsulation efficiency) and Huachasu injection (1 ml/kg, the dosage is obtained by converting clinically commonly used dosage into mouse administration dosage) respectively every day. The survival situations of mice within 35 days are observed and recorded, and the life extension rate is calculated. Life extension rate (%)=(average survival time of administration group/average survival time of control group-1)×100. Data are expressed as X±SEM. Statistical significance (P<0.05) for each variable was estimated by Student's t-test or ANOVA analysis.

[4] = system: patient with liver cancer or pancreas cancer; experiment: Clinical tolerance of Huachasu injection (literature, Meng Z. et al.); assay type: in vivo, human; settings: worked out from the Huachasu injection dose and its bufalin content
Source text: At present, a Huachasu injection, prepared by dissolving Venenum Bufonis in normal saline, has been used for the clinical treatment of cancer in China. It has been reported that the combination of gemcitabine-oxaliplatin with Huachasu can enhance the chemotherapeutic effect in the treatment of patients with advanced gallbladder cancer (Qin T J, et al. World J Gastroenterol. 2008, 14(33):5210-6). […] However, the Huachasu injection is a mixture solution of alkaloids in Venenum Bufonis, and the content of bufalin contained therein is very low due to the poor water solubility of bufalin.

[5] = system: human cervical carcinoma Hela cells; experiment: Growth inhibition on tumor cells (MTT); assay type: cell-based; settings: 48 h
Description: (§1) The cells of human cervical carcinoma Hela, lung cancer A549, gastric cancer SGC7901, liver cancer HepG2, myeloid leukemia HL-60 and colon cancer SW1116 are cultured in DMEM or RPMI 1640 medium (containing 10% inactived fetal bovine serum, 100 U·ml^−1 penicillin and 100 mg·l^−1 streptomycin) in a humidified 5% CO2 atmosphere at […]. The cells in logarithmic phase are collected, inoculated into 96-well plate at a density of 3×10^3/well (each well of 100 μl), and cultured for 24 h under 37° C., 5% CO2 and saturated humidity condition. A negative control group (culture solution) and administration groups with different concentrations are set up for the test. 1-300 nmol/1 bufalin or bufalin liposome (prepared according to the method of Example 1) is added into each culture well, followed by culturing in an incubator under 37° C., 5% CO2 and saturated humidity for 48 h, adding 20 μl of MTT solution (5 g/l) into each well, culturing for 4 h, and centrifuging. The supernatant was aspirated, and 150 μl dimethyl sulfoxide (DMSO) is added to each well and slightly shaking to dissolve crystal. The OD values are measured at 570 nm by an automatic microplate reader, and the cell growth inhibition rates are calculated according to following formula: cell growth inhibition rate/%=100−(OD value of administration group-OD value of blank control group)/(OD value of control group-OD value of bland control group)×100. IC50 (drug concentration at 50% inhibition on cell proliferation) value is calculated using mathematical method. Data are expressed as X±SEM. Statistical significance (P<0.05) for each variable is estimated by Student's t-test or ANOVA analysis.

[6] = system: myeloid leukemia HL-60 cells; experiment: Growth inhibition on tumor cells (MTT); assay type: cell-based; settings: Homo sapiens
Description: as §1

lung cancer A549 cells = experiment: Growth inhibition on tumor cells (MTT); assay type: cell-based; settings: Homo sapiens
Description: as §1

liver cancer HepG2 cells = experiment: Growth inhibition on tumor cells (MTT); assay type: cell-based; settings: Homo sapiens
Description: as §1

[7] = system: colon cancer SW1116 cells; experiment: Growth inhibition on tumor cells (MTT); assay type: cell-based; settings: Homo sapiens
Description: as §1

[8] = system: gastric cancer SGC7901 cells; experiment: Growth inhibition on tumor cells (MTT); assay type: cell-based; settings: Homo sapiens
Description: as §1

In the case of `C[C@]12CC[C@H](O)C[C@H]1CC[C@@H]1[C@@H]2CC[C@]2(C)[C@@H](c3ccc(=O)oc3)CC[C@]12O` [bufalin, 3β,14-dihydroxy-5β, 20(22)-bufadienolide], the LD50 at 7 days [1] is reported as 2 mg/kg, the tumor inhibition rate ([2]; after 14 days, versus control group) is reported as 21.8% and the “Tumor volume (mm^3)” value ([2]; treatment day 0 (prior to administration)) is reported as 410.5 ± 75.3 mm^3. For the same compound, the “Tumor volume (mm^3)” value ([2]; treatment day 2) was 1055.8 ± 203.0 mm^3, the “Tumor volume (mm^3)” value ([2]; treatment day 4) was 1621.0 ± 303.8 mm^3 and the “Tumor volume (mm^3)” value ([2]; treatment day 6) was 2215.9 ± 338.1* mm^3. For the same compound, the “Tumor volume (mm^3)” value ([2]; treatment day 8) was 2115.7 ± 349.7* mm^3, the “Tumor volume (mm^3)” value ([2]; treatment day 10) was 2565.4 ± 385.2* mm^3 and the “Tumor volume (mm^3)” value ([2]; treatment day 12) was 2691.9 ± 407.1* mm^3. The “Tumor volume (mm^3)” value ([2]; treatment day 14, 1 mg/kg) was 3205.6±711.5 mm^3, the “Tumor volume (mm^3)” value ([2]; treatment day 14, listed as Bufalin, 1 mg/kg) was 3205.6 ± 711.5* mm^3 and the “Average survival time” value ([3]; observed 35 days, 1 mg/kg) was 22.8 ± 3.1 days. The “Life extension rate (%)” value ([3]; versus control group) was 36.5%, the “amount of bufalin tolerated by an adult patient every day” value [4] was “up to 2.3 μg” and the inhibition at 0.001 µM ([5]; 1 nmol/l, read-out: Inhibition rate (%)) was 3.8 ± 2%. For the same compound, the inhibition at 0.003 µM ([5]; 3 nmol/l, read-out: Inhibition rate (%)) was 9.6 ± 8.2%, the inhibition at 0.01 µM ([5]; 10 nmol/l, read-out: Inhibition rate (%)) was 33.9 ± 4.5% and the inhibition at 0.03 µM ([5]; 30 nmol/l, read-out: Inhibition rate (%)) was 56.3 ± 8.2%. For the same compound, the inhibition at 0.1 µM ([5]; 100 nmol/l, read-out: Inhibition rate (%)) was 90.3 ± 10.7%, the inhibition at 0.3 µM ([5]; 300 nmol/l, read-out: Inhibition rate (%)) was 95.1 ± 6.9% and the IC50 [5] was 17.1 nM. The inhibition at 0.001 µM ([6]; HL60, 1 nmol/l, 48 h, read-out: Inhibition rate (%)) was 1.6 ± 0.1%, the inhibition at 0.003 µM ([6]; HL60, 3 nmol/l, 48 h, read-out: Inhibition rate (%)) was 4.4 ± 0.7% and the inhibition at 0.01 µM ([6]; HL60, 10 nmol/l, 48 h, read-out: Inhibition rate (%)) was 33.8 ± 6.1%. The inhibition at 0.03 µM ([6]; HL60, 30 nmol/l, 48 h, read-out: Inhibition rate (%)) was 52.4 ± 8%, the inhibition at 0.1 µM ([6]; HL60, 100 nmol/l, 48 h, read-out: Inhibition rate (%)) was 88.7 ± 9.8% and the inhibition at 0.3 µM ([6]; HL60, 300 nmol/l, 48 h, read-out: Inhibition rate (%)) was 98 ± 10.2%. The IC50 ([6]; HL60, 48 h) was 21.1 nM, the inhibition at 0.001 µM (lung cancer A549 cells; A549, 1 nmol/l, 48 h, read-out: Inhibition rate (%)) was 2 ± 0.2% and the inhibition at 0.003 µM (lung cancer A549 cells; A549, 3 nmol/l, 48 h, read-out: Inhibition rate (%)) was 8.5 ± 1%. It also gave an inhibition at 0.01 µM (lung cancer A549 cells; A549, 10 nmol/l, 48 h, read-out: Inhibition rate (%)) of 25.3 ± 3.8%, an inhibition at 0.03 µM (lung cancer A549 cells; A549, 30 nmol/l, 48 h, read-out: Inhibition rate (%)) of 44.2 ± 7.1% and an inhibition at 0.1 µM (lung cancer A549 cells; A549, 100 nmol/l, 48 h, read-out: Inhibition rate (%)) of 52.3 ± 8.3%. It also gave an inhibition at 0.3 µM (lung cancer A549 cells; A549, 300 nmol/l, 48 h, read-out: Inhibition rate (%)) of 63.8 ± 7.9%, an IC50 (lung cancer A549 cells; A549, 48 h) of 78.8 nM and an inhibition at 0.001 µM (liver cancer HepG2 cells; HepG2, 1 nmol/l, 48 h, read-out: Inhibition rate (%)) of 5.3 ± 2.2%. For the same compound, the inhibition at 0.003 µM (liver cancer HepG2 cells; HepG2, 3 nmol/l, 48 h, read-out: Inhibition rate (%)) was 6.1 ± 2.3%, the inhibition at 0.01 µM (liver cancer HepG2 cells; HepG2, 10 nmol/l, 48 h, read-out: Inhibition rate (%)) was 30.2 ± 2.9% and the inhibition at 0.03 µM (liver cancer HepG2 cells; HepG2, 30 nmol/l, 48 h, read-out: Inhibition rate (%)) was 49.8 ± 8.3%. The inhibition at 0.1 µM (liver cancer HepG2 cells; HepG2, 100 nmol/l, 48 h, read-out: Inhibition rate (%)) was 69.8 ± 7.5%, the inhibition at 0.3 µM (liver cancer HepG2 cells; HepG2, 300 nmol/l, 48 h, read-out: Inhibition rate (%)) was 87.7 ± 9.6% and the IC50 (liver cancer HepG2 cells; HepG2, 48 h) was 33 nM. The inhibition at 0.001 µM ([7]; SW 1116, SW1116, 1 nmol/l, 48 h, read-out: Inhibition rate (%)) was 1.9 ± 0.3%, the inhibition at 0.003 µM ([7]; SW 1116, SW1116, 3 nmol/l, 48 h, read-out: Inhibition rate (%)) was 2.7 ± 0.1% and the inhibition at 0.01 µM ([7]; SW 1116, SW1116, 10 nmol/l, 48 h, read-out: Inhibition rate (%)) was 18 ± 3.9%. It also gave an inhibition at 0.03 µM ([7]; SW 1116, SW1116, 30 nmol/l, 48 h, read-out: Inhibition rate (%)) of 42.7 ± 6.3%, an inhibition at 0.1 µM ([7]; SW 1116, SW1116, 100 nmol/l, 48 h, read-out: Inhibition rate (%)) of 73.1 ± 8.8% and an inhibition at 0.3 µM ([7]; SW 1116, SW1116, 300 nmol/l, 48 h, read-out: Inhibition rate (%)) of 99.4 ± 11.6%. It also gave an IC50 ([7]; SW 1116, SW1116, 48 h) of 30.6 nM, an inhibition at 0.001 µM ([8]; SGC-7901, 1 nmol/l, 48 h, read-out: Inhibition rate (%)) of 3.1 ± 0.5% and an inhibition at 0.003 µM ([8]; SGC-7901, 3 nmol/l, 48 h, read-out: Inhibition rate (%)) of 3.9 ± 0.8%. For the same compound, the inhibition at 0.01 µM ([8]; SGC-7901, 10 nmol/l, 48 h, read-out: Inhibition rate (%)) was 23.7 ± 3.6%, the inhibition at 0.03 µM ([8]; SGC-7901, 30 nmol/l, 48 h, read-out: Inhibition rate (%)) was 45.9 ± 6.5% and the inhibition at 0.1 µM ([8]; SGC-7901, 100 nmol/l, 48 h, read-out: Inhibition rate (%)) was 85.6 ± 10.2%. It also gave an inhibition at 0.3 µM ([8]; SGC-7901, 300 nmol/l, 48 h, read-out: Inhibition rate (%)) of 97.9 ± 11.3% and an IC50 ([8]; SGC-7901, 48 h) of 23.5 nM.
